Source: PMC11822212, “High-throughput screening identifies Aurora kinase B as a critical therapeutic target for Merkel cell carcinoma” (Nature Communications, 2025)
Where two headings read alike, the source gives them in different places.

Experiments:
[1] = tested on: MKL-1 cells (VP-MCC); assay: qHTS cell viability (CellTiter-Glo, 72 h; primary and follow-up small molecule screen); assay type: cell-based, human
[2] = tested on: VN-MCC cell lines (MCC13, MCC26, UISO); assay: qHTS cell viability, VN-MCC cell lines as a group (mean AUC, VN.MCC.avg); assay type: cell-based, human
[3] = tested on: six MCC cell lines and four control cell lines; assay: qHTS cell viability, all 10 cell lines screened; assay type: cell-based
[4] = tested on: MCC13 cells (VN-MCC); assay: qHTS cell viability (CellTiter-Glo, 72 h; primary and follow-up small molecule screen); assay type: cell-based, human
[5] = tested on: MCC cell lines (WAGA, MKL-1, MKL-2, MCC13, MCC26, UISO); assay: qHTS cell viability, all six MCC cell lines as a group (mean AUC, MCC.avg); assay type: cell-based, human
[6] = tested on: WAGA cells (VP-MCC); assay: qHTS cell viability (CellTiter-Glo, 72 h; primary and follow-up small molecule screen); assay type: cell-based, human
[7] = tested on: MCC26 cells (VN-MCC); assay: as above; assay type: cell-based, human
[8] = tested on: HACAT cells; assay: qHTS cell viability (CellTiter-Glo, 72 h; primary screen), control cell line; assay type: cell-based, human
[9] = tested on: control cell lines (HACAT, HEK293T, CRL-7250, NIH-3T3); assay: qHTS cell viability, control cell lines as a group (mean AUC, Control.avg); assay type: cell-based
[10] = tested on: NIH-3T3 cells; assay: qHTS cell viability (CellTiter-Glo, 72 h; primary screen), control cell line; assay type: cell-based, mouse
[11] = tested on: VP-MCC cell lines (WAGA, MKL-1, MKL-2); assay: qHTS cell viability, VP-MCC cell lines as a group (mean AUC, VP.MCC.avg); assay type: cell-based, human
[12] = tested on: HEK293T cells; assay: qHTS cell viability (CellTiter-Glo, 72 h; primary screen), control cell line; assay type: cell-based, human
[13] = tested on: CRL-7250 cells; assay: as above; assay type: cell-based
[14] = tested on: MKL-2 cells (VP-MCC); assay: qHTS cell viability (CellTiter-Glo, 72 h; primary and follow-up small molecule screen); assay type: cell-based, human
[15] = tested on: UISO cells (VN-MCC); assay: as above; assay type: cell-based, human
[16] = MIPE library, 11-point DRC, sheet S2D
[17] = MIPE library, 11-point DRC, sheet S2E
[18] = MIPE library, 11-point DRC, control cell line, sheet S2D
[19] = MIPE library, 11-point DRC, control cell line, sheet S2E

Clc1ccc(C(Cn2ccnc2)OCc2ccsc2Cl)c(Cl)c1 (centres unmarked) [Tioconazole]
MKL1_AUC ([1]; NPC library, qHTS dose-response AUC, MKL1): 310.311
VN-MCC_Avg_AUC ([2]; NPC library, mean AUC of VN-MCC cell lines): 459.387
Control-VN-MCC ([2]; NPC library, therapeutic window: Control avg AUC minus VN-MCC avg AUC): 8.311
Control-MCC ([3]; NPC library, therapeutic window: Control avg AUC minus MCC avg AUC): 97.8731
MCC13_AUC ([4]; NPC library, qHTS dose-response AUC, MCC13): 438.775
MCC_Avg_AUC ([5]; NPC library, mean AUC of six MCC cell lines): 369.824
WAGA_AUC ([6]; NPC library, qHTS dose-response AUC, WAGA): 248.268
MCC26_AUC ([7]; NPC library, qHTS dose-response AUC, MCC26): 501.8
HACAT_AUC ([8]; NPC library, qHTS dose-response AUC, HACAT control): 488.14
Control_Avg_AUC ([9]; NPC library, mean AUC of control cell lines): 467.697
NIH3T3_AUC ([10]; NPC library, qHTS dose-response AUC, NIH3T3 control): 445.245
VP-MCC_Avg_AUC ([11]; NPC library, mean AUC of VP-MCC cell lines): 280.262
Control-VP-MCC ([11]; NPC library, therapeutic window: Control avg AUC minus VP-MCC avg AUC): 187.435
HEK293T_AUC ([12]; NPC library, qHTS dose-response AUC, HEK293T control): 456.797
CRL7250_AUC ([13]; NPC library, qHTS dose-response AUC, CRL7250 control): 480.608
MKL2_AUC ([14]; NPC library, qHTS dose-response AUC, MKL2): 282.208
UISO_AUC ([15]; NPC library, qHTS dose-response AUC, UISO): 437.585

C=Cc1c(C)c2cc3nc(cc4[nH]c(cc5nc(cc1[nH]2)C(C)=C5CCC(=O)O)c(CCC(=O)OC)c4C)[C@@]1(C)C3=CC=C(C(=O)OC)[C@H]1C(=O)OC [Verteporfin]
MKL1_AUC [1, 16]: 279.212
MKL1_AUC [1, 17]: 279.212
Control-VN-MCC ([2]; MIPE library, Control AUC minus VN-MCC AUC (therapeutic window), sheet S2D): 93.5089
Control-VN-MCC ([2]; MIPE library, Control AUC minus VN-MCC AUC (therapeutic window), sheet S2E): 93.5089
VN-MCC_Avg_AUC ([2]; MIPE library, mean AUC of VN-MCC cell lines, sheet S2D): 369.774
VN-MCC_Avg_AUC ([2]; MIPE library, mean AUC of VN-MCC cell lines, sheet S2E): 369.774
Control-MCC ([3]; MIPE library, Control AUC minus MCC AUC (therapeutic window), sheet S2D): 151.157
Control-MCC ([3]; MIPE library, Control AUC minus MCC AUC (therapeutic window), sheet S2E): 151.157
MCC13_AUC [4, 16]: 440.785
MCC13_AUC [4, 17]: 440.785
MCC_Avg_AUC ([5]; MIPE library, mean AUC of six MCC cell lines, sheet S2D): 312.125
MCC_Avg_AUC ([5]; MIPE library, mean AUC of six MCC cell lines, sheet S2E): 312.125
WAGA_AUC [6, 16]: 266.998
WAGA_AUC [6, 17]: 266.998
MCC26_AUC [7, 16]: 397.153
MCC26_AUC [7, 17]: 397.153
HACAT_AUC [8, 18]: 478.04
HACAT_AUC [8, 19]: 478.04
Control_Avg_AUC ([9]; MIPE library, mean AUC of control cell lines, sheet S2D): 463.283
Control_Avg_AUC ([9]; MIPE library, mean AUC of control cell lines, sheet S2E): 463.283
NIH3T3_AUC [10, 18]: 474.512
NIH3T3_AUC [10, 19]: 474.512
Control-VP-MCC ([11]; MIPE library, Control AUC minus VP-MCC AUC (therapeutic window), sheet S2D): 208.806
Control-VP-MCC ([11]; MIPE library, Control AUC minus VP-MCC AUC (therapeutic window), sheet S2E): 208.806
VP-MCC_Avg_AUC ([11]; MIPE library, mean AUC of VP-MCC cell lines, sheet S2D): 254.477
VP-MCC_Avg_AUC ([11]; MIPE library, mean AUC of VP-MCC cell lines, sheet S2E): 254.477
HEK293T_AUC [12, 18]: 435.497
HEK293T_AUC [12, 19]: 435.497
CRL7250_AUC [13, 18]: 465.081
CRL7250_AUC [13, 19]: 465.081
MKL2_AUC [14, 16]: 217.219
MKL2_AUC [14, 17]: 217.219
UISO_AUC [15, 16]: 271.383
UISO_AUC [15, 17]: 271.383

COc1cc(NC(C)CCCN)c2ncccc2c1 (centres unmarked) [Primaquine diphosphate]
MKL1_AUC [1]: 406.282
Control-VN-MCC [2]: 11.3144
VN-MCC_Avg_AUC [2]: 467.687
Control-MCC [3]: 40.202
MCC13_AUC [4]: 448.24
MCC_Avg_AUC [5]: 438.799
WAGA_AUC [6]: 404.704
MCC26_AUC [7]: 495.867
HACAT_AUC [8]: 484.209
Control_Avg_AUC [9]: 479.001
NIH3T3_AUC [10]: 490.172
Control-VP-MCC [11]: 69.0896
VP-MCC_Avg_AUC [11]: 409.912
HEK293T_AUC [12]: 455.709
CRL7250_AUC [13]: 485.915
MKL2_AUC [14]: 418.75
UISO_AUC [15]: 458.954
